Assay results published in patent US20260250290A1 (BRISTOL-MYERS SQUIBB COMPANY, priority 2023, published 2026).
Structures can show the parent of a compound that is named as a salt.

These compounds were tested against T1, full length SGK1 (Homo sapiens, UniProt O00141) (assay: SGK1 inhibition Assay A (Caliper LabChip electrophoretic separation of fluorescent peptide substrate and phosphorylated product)). Conditions: Assay A; 20 μM ATP, 40 min incubation; read-out: SGK1 IC50.
T1 construct: 125 μM full length SGK1 (Life Technologies Part #PR7358A); purchased Life Technologies PR7358A
T1 sequence (O00141 1-431): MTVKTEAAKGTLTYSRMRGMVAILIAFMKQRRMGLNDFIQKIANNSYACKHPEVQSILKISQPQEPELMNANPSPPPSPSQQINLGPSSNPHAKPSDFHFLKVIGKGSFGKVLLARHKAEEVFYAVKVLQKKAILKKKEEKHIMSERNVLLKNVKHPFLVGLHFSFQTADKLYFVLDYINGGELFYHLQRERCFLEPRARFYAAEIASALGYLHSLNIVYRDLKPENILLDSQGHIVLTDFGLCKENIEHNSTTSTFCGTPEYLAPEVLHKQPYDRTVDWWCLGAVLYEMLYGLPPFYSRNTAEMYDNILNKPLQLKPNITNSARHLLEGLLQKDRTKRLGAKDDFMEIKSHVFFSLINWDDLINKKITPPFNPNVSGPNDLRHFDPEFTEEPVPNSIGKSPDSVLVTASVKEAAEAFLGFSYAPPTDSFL
Assay type: biochemical

Compound	IC50 [nM]
CS(=O)(=O)c1ccc(-c2cc(N3CCC[C@@H](NC(=O)c4cn5ccncc5n4)C3)c3c(N)ncnn23)cc1 [Example 42, (R)-N-(1-(4-amino-7-(4-(methylsulfonyl)phenyl)pyrrolo 2,1-f][1,2,4]triazin-5-yl)piperidin-3-yl)imidazo[1,2-alpyrazine-2-carboxamide, TFA]	187
CS(=O)(=O)c1ccc(-c2cc(N3CCC[C@@H](NC(=O)c4cc[nH]c(=O)c4)C3)c3c(N)ncnn23)cc1 [Example 43, (R)-N-(1-(4-amino-7-(4-(methylsulfonyl)phenyl)pyrrolo[2,1-f][1,2,4]triazin-5-yl)piperidin-3-yl)-2-oxo-1,2-d1Hydropyridine-4-carboxamide, TFA]	79
CS(=O)(=O)c1ccc(-c2cc(N3CCC[C@@H](NC(=O)c4cn5c(n4)CCCC5)C3)c3c(N)ncnn23)cc1 [Example 44]	735
CS(=O)(=O)c1ccc(-c2cc(N3CCC[C@@H](NC(=O)c4cn5ccsc5n4)C3)c3c(N)ncnn23)cc1 [Example 45, (R)-N-(1-(4-amino-7-(4-(methylsulfonyl)phenyl)pyrrolo [2,1-f][1,2,4]triazin-5-yl)piperidin-3-yl)imidazo[2,1-b]thiazole-6-carboxamide]	28
COc1cc(C(=O)N[C@@H]2CCCN(c3cc(-c4ccc(S(C)(=O)=O)cc4)n4ncnc(N)c34)C2)ccn1 [Example 46, (R)-N-(1-(4-amino-7-(4-(methylsulfonyl)phenyl)pyrrolo[2,1-f][1,2,4]triazin-5-yl)piperidin-3-yl)-2-methoxyisonicotinamide, TFA]	10
CS(=O)(=O)c1ccc(-c2cc(N3CCC[C@@H](NC(=O)c4ccnc(C#N)c4)C3)c3c(N)ncnn23)cc1 [Example 47, (R)-N-(1-(4-amino-7-(4-(methylsulfonyl)phenyl)pyrrolo[2,1-f][1,2,4]triazin-5-yl)piperidin-3-yl)-2-cyanoisonicotinamide, TFA]	44
Cn1cnc(C(=O)N[C@@H]2CCCN(c3cc(-c4ccc(S(C)(=O)=O)cc4)n4ncnc(N)c34)C2)c1 [Example 48, (R)-N-(1-(4-amino-7-(4-(methylsulfonyl)phenyl)pyrrolo[2,1-f][1,2,4]triazin-5-yl)piperidin-3-yl)-1-methyl-1H-imidazole-4-carboxamide]	307
COc1ccccc1C(=O)N[C@@H]1CCCN(c2cc(-c3ccc(S(C)(=O)=O)cc3)n3ncnc(N)c23)C1 [Example 49, (R)-N-(1-(4-amino-7-(4-(methylsulfonyl)phenyl)pyrrolo[2,1-f][1,2,4]triazin-5-yl)piperidin-3-yl)-2-methoxybenzamide]	43
CS(=O)(=O)c1ccc(-c2cc(N3CCC[C@@H](NC(=O)c4cccnc4)C3)c3c(N)ncnn23)cc1 [Example 50, (R)-N-(1-(4-amino-7-(4-(methylsulfonyl)phenyl)pyrrolo [2,1-f][1,2,4]triazin-5-yl)piperidin-3-yl)nicotinamide, TFA]	69
CS(=O)(=O)c1ccc(-c2cc(N3CCC[C@@H](NC(=O)c4cccc(-c5cnco5)c4)C3)c3c(N)ncnn23)cc1 [Example 51, (R)-N-(1-(4-amino-7-(4-(methylsulfonyl)phenyl)pyrrolo[2,1-f][1,2,4]triazin-5-yl)piperidin-3-yl)-3-(oxazol-5-yl)benzamide]	13
Cc1ccccc1C(=O)N[C@@H]1CCCN(c2cc(-c3ccc(S(C)(=O)=O)cc3)n3ncnc(N)c23)C1 [Example 52, (R)-N-(1-(4-amino-7-(4-(methylsulfonyl)phenyl)pyrrolo[2,1-f][1,2,4]triazin-5-yl)piperidin-3-yl)-2-methylbenzamide]	210
CS(=O)(=O)c1ccc(-c2cc(N3CCC[C@@H](NC(=O)c4cccc(F)c4)C3)c3c(N)ncnn23)cc1 [Example 53, (R)-N-(1-(4-amino-7-(4-(methylsulfonyl)phenyl)pyrrolo[2,1-f][1,2,4]triazin-5-yl)piperidin-3-yl)-3-fluorobenzamide]	15
CS(=O)(=O)c1ccc(-c2cc(N3CCC[C@@H](NC(=O)c4ccn5ccnc5c4)C3)c3c(N)ncnn23)cc1 [Example 54]	596
COc1ccc(OC)c(C(=O)N[C@@H]2CCCN(c3cc(-c4ccc(S(C)(=O)=O)cc4)n4ncnc(N)c34)C2)c1 [Example 56, (R)-N-(1-(4-amino-7-(4-(methylsulfonyl)phenyl)pyrrolo[2,1-f][1,2,4]triazin-5-yl)piperidin-3-yl)-2,5-dimethoxybenzamide, TFA]	486
COc1ccc(C)cc1C(=O)N[C@@H]1CCCN(c2cc(-c3ccc(S(C)(=O)=O)cc3)n3ncnc(N)c23)C1 [Example 57, (R)-N-(1-(4-amino-7-(4-(methylsulfonyl)phenyl)pyrrolo[2,1-f][1,2,4]triazin-5-yl)piperidin-3-yl)-2-methoxy-5-methylbenzamide, TFA]	112
CS(=O)(=O)c1ccc(-c2cc(N3CCC[C@@H](NC(=O)c4ccccc4OC(F)F)C3)c3c(N)ncnn23)cc1 [Example 58, (R)-N-(1-(4-amino-7-(4-(methylsulfonyl)phenyl)pyrrolo[2,1-f][1,2,4]triazin-5-yl)piperidin-3-yl)-2-(difluoromethoxy) benzamide, TFA]	854
CS(=O)(=O)c1ccc(-c2cc(N3CCC[C@@H](NC(=O)c4ccccc4OCCO)C3)c3c(N)ncnn23)cc1 [Example 59, (R)-N-(1-(4-amino-7-(4-(methylsulfonyl)phenyl)pyrrolo[2,1-f][1,2,4]triazin-5-yl)piperidin-3-yl)-2-(2-hydroxyethoxy) benzamide]	10
COc1ncccc1C(=O)N[C@@H]1CCCN(c2cc(-c3ccc(S(C)(=O)=O)cc3)n3ncnc(N)c23)C1 [Example 60, (R)-N-(1-(4-amino-7-(4-(methylsulfonyl)phenyl)pyrrolo[2,1-f][1,2,4]triazin-5-yl)piperidin-3-yl)-2-methoxynicotinamide]	130
CS(=O)(=O)c1ccc(-c2cc(N3CCC[C@@H](NC(=O)c4cnco4)C3)c3c(N)ncnn23)cc1 [Example 61, (R)-N-(1-(4-amino-7-(4-(methylsulfonyl)phenyl)pyrrolo[2,1-f][1,2,4]triazin-5-yl)piperidin-3-yl)oxazole-5-carboxamide]	33
CS(=O)(=O)c1ccc(-c2cc(N3CCC[C@@H](NC(=O)c4ccsn4)C3)c3c(N)ncnn23)cc1 [Example 62, (R)-N-(1-(4-amino-7-(4-(methylsulfonyl)phenyl)pyrrolo[2,1-f][1,2,4]triazin-5-yl)piperidin-3-yl)isothiazole-3-carboxamide]	111
Cc1cc(C(=O)N[C@@H]2CCCN(c3cc(-c4ccc(S(C)(=O)=O)cc4)n4ncnc(N)c34)C2)on1 [Example 63, (R)-N-(1-(4-amino-7-(4-(methylsulfonyl)phenyl)pyrrolo[2,1-f][1,2,4]triazin-5-yl)piperidin-3-yl)-3-methylisoxazole-5-carboxamide, TFA]	105
CS(=O)(=O)c1ccc(-c2cc(N3CCC[C@@H](NC(=O)c4ccno4)C3)c3c(N)ncnn23)cc1 [Example 64, (R)-N-(1-(4-amino-7-(4-(methylsulfonyl)phenyl)pyrrolo[2,1-f][1,2,4]triazin-5-yl)piperidin-3-yl)isoxazole-5-carboxamide]	285
CC(C)c1cc(C(=O)N[C@@H]2CCCN(c3cc(-c4ccc(S(C)(=O)=O)cc4)n4ncnc(N)c34)C2)on1 [Example 65, (R)-N-(1-(4-amino-7-(4-(methylsulfonyl)phenyl)pyrrolo [2,1-f][1,2,4]triazin-5-yl)piperidin-3-yl)-3-isopropylisoxazole-5-carboxamide]	19
CS(=O)(=O)c1ccc(-c2cc(N3CCC[C@@H](NC(=O)c4cncs4)C3)c3c(N)ncnn23)cc1 [Example 66, (R)-N-(1-(4-amino-7-(4-(methylsulfonyl)phenyl)pyrrolo[2,1-f][1,2,4]triazin-5-yl)piperidin-3-yl)thiazole-5-carboxamide]	39
COc1cc(C(=O)N[C@@H]2CCCN(c3cc(-c4ccc(S(C)(=O)=O)cc4)n4ncnc(N)c34)C2)c(OC)nn1 [Example 67, (R)-N-(1-(4-amino-7-(4-(methylsulfonyl)phenyl)pyrrolo[2,1-f][1,2,4]triazin-5-yl)piperidin-3-yl)-3,6-dimethoxypyridazine-4-carboxamide]	261
COc1cnccc1C(=O)N[C@@H]1CCCN(c2cc(-c3ccc(S(C)(=O)=O)cc3)n3ncnc(N)c23)C1 [Example 68, (R)-N-(1-(4-amino-7-(4-(methylsulfonyl)phenyl)pyrrolo[2,1-f][1,2,4]triazin-5-yl)piperidin-3-yl)-3-methoxyisonicotinamide]	287
CS(=O)(=O)c1ccc(-c2cc(N3CCC[C@@H](NC(=O)c4ccnc(N5CCOCC5)c4)C3)c3c(N)ncnn23)cc1 [Example 69, (R)-N-(1-(4-amino-7-(4-(methylsulfonyl)phenyl)pyrrolo[2,1-f][1,2,4]triazin-5-yl)piperidin-3-yl)-2-morpholinoisonicotinamide]	37
CS(=O)(=O)c1ccc(-c2cc(N3CCC[C@@H](NC(=O)c4cnns4)C3)c3c(N)ncnn23)cc1 [Example 70, (R)-N-(1-(4-amino-7-(4-(methylsulfonyl)phenyl)pyrrolo[2,1-f][1,2,4]triazin-5-yl)piperidin-3-yl)-1,2,3-thiadiazole-5-carboxamide]	21
COc1cc(C(=O)N[C@@H]2CCCN(c3cc(-c4ccc(S(C)(=O)=O)cc4)n4ncnc(N)c34)C2)sn1 [Example 71, (R)-N-(1-(4-amino-7-(4-(methylsulfonyl)phenyl)pyrrolo[2,1-f][1,2,4]triazin-5-yl)piperidin-3-yl)-3-methoxyisothiazole-5-carboxamide]	6
